Test results from PMC4977651, “Molecular features of biguanides required for targeting of mitochondrial respiratory complex I and activation of AMP-kinase” (BMC Biology, 2016).
Values joined by “and” are separate entries in the source; they are usually repeats but may differ in a detail not shown here. Identical values can stand only once.

Key:
permeabilized MDBK cells = assay: ADP-stimulated rotenone-sensitive OCR in permeabilized MDBK cells; assay type: cell-based, Bos taurus; set-up: rotenone sensitive OCR after ADP stimulation, average / rotenone sensitive OCR after ADP stimulation: unit not given here; details: MDBK permeabilised cells; for rotenone sensitive OCR after ADP stimulation, % of control, average / rotenone sensitive OCR after ADP stimulation, average: average of replicates; for rotenone sensitive OCR after ADP stimulation / rotenone sensitive OCR after ADP stimulation, % of control: individual replicates
Experimental: For permeabilized cell experiments, cells were seeded into XF96 plates at 0.9–1.1 × 10^4 per well and incubated for 48 h at 37 °C in 5 % CO2. Then, the growth medium was exchanged for assay buffer containing 3 nM plasma membrane permeabilizer ‘PMP’ (Seahorse Biosciences Inc.), 10 mM glutamate, 10 mM malate, 220 mM mannitol, 70 mM sucrose, 10 mM KH2PO4, 5 mM MgCl2, 1 mM EGTA, 0.2 % fatty acid-free bovine serum albumin (BSA), and 2 mM HEPES (pH 7.4 at 37 °C). […] The biguanides were allowed to accumulate for 30 min, then respiration was […] by the addition of 4 mM ADP. Rotenone was added (2 μM) at the end of the experiment.
(§1) Rotenone-sensitive OCRs were calculated by subtracting the rotenone-insensitive rates (determined at the end of the experiment). OCRs were normalized by dividing by the OCR recorded immediately prior to the addition of biguanide. For rate of uptake calculations, the OCRs at time points after biguanide addition were divided by the OCRs at the same time points in control experiments. Data from wells with failed port injections were excluded from the analyses. The respiratory control ratio (RCR) values (state III versus state IV respiration) were ~11 and ~6 for permeabilized MDBK and 143B cells, respectively.

mouse liver mitochondria = assay: ADP-stimulated rotenone-sensitive OCR in isolated mouse liver mitochondria; assay type: biochemical; set-up: rotenone sensitive OCR after ADP stimulation, individual replicates / rotenone sensitive OCR after ADP stimulation, average: unit not given here; details: for rotenone sensitive OCR after ADP stimulation, % of control, average / rotenone sensitive OCR after ADP stimulation, average: average of replicates; for rotenone sensitive OCR after ADP stimulation, % of control, individual replicates / rotenone sensitive OCR after ADP stimulation, individual replicates: replicate 1-5
Experimental: (§2) Complex I and mitochondrial membranes were prepared from Bos taurus (bovine) heart. Intact mitochondria were isolated from rat liver and mouse heart and liver. Membranes were prepared from mouse heart mitochondria by 5 s bursts of sonication at 4 °C and collected by centrifugation (75,000 × g, 1 h).
(§3) Isolated mitochondria were monitored using a Seahorse XF96 extracellular flux analyzer at 32 °C. Mouse heart mitochondria, and mouse and rat liver mitochondria were plated into XF96 plates at 4 and 16–20 μg per well, respectively, in 220 mM mannitol, 70 mM sucrose, 10 mM KH2PO4, 5 mM MgCl2, 1 mM EGTA, 0.2 % fatty acid-free BSA, and 2 mM HEPES (pH 7.4 at 37 °C) with 10 mM glutamate and 10 mM malate and adhered by centrifugation (2000 × g, 20 min, 4 °C). The medium was supplemented with a further 5 mM glutamate and 5 mM malate and the mitochondria incubated for 15 min. Then two baseline readings were taken before the biguanides were added at IC50/5. Biguanides were allowed to accumulate for 15–20 min before respiration was […] by the addition of 4 mM ADP. Rotenone (2 μM) was added at the end of the experiment. Data from wells with failed port injections were excluded from the analyses. The RCR values (state III versus state IV respiration) were 3.4, 4.8, and 4.6 for mouse heart, rat liver, and mouse liver, respectively.

HepG2 cells = assay: Rotenone-sensitive oxygen consumption rate in intact HepG2 cells; assay type: cell-based, human; details: for rotenone sensitive OCR after 6 hours of biguanide exposure, % control, average / rotenone sensitive OCR after 6 hours of biguanide exposure, average: HEPG2 cells, biguanide at IC50/10; for rotenone sensitive OCR after 6 hours of biguanide exposure, average: OCR normalized to OCR immediately prior to biguanide addition; for inhibition of rotenone-sensitive respiration (in words): intact HepG2 cells, biguanide at IC50/10, monitored for 6 h
Experimental: (§4) 143B (CRL-8303 from ATCC), HepG2 (85011430 from The Health Protection Agency), and MDBK (CCL-22 from ATCC) cells were grown on Dulbecco’s modified Eagle’s medium (DMEM) supplemented with 10 % fetal bovine serum (FBS, Thermo Fisher Scientific) at 37 °C in 5 % CO2. All cells were confirmed as negative for mycoplasma.
(§5) Oxygen consumption rates (OCRs) were measured using a Seahorse XF96 extracellular flux analyzer at 37 °C. For intact cell measurements, 1.4 × 10^4 143B, HepG2, or MDBK cells were plated (per well) in DMEM containing 10 % FBS into Seahorse Bioscience Inc. XF96 plates and incubated for ~12 h at 37 °C in 5 % CO2. Then, the medium was exchanged for assay buffer containing DMEM, 4.5 g L^−1 glucose, 1 mM pyruvate, 32 mM NaCl, 2 mM GlutaMAX, 15 mg L^−1 phenol red, and 20 mM HEPES (pH 7.4 at 37 °C) and the cells placed in a CO2-free incubator at 37 °C for 30 min. Basal oxygen consumption rates were established before the addition of biguanides at one-tenth of their IC50 (IC50/10), and followed for ~ 6 h before the addition of rotenone (2 μM).
as §1

MDBK cells = assay: Rotenone-sensitive oxygen consumption rate in intact MDBK cells; assay type: cell-based, Bos taurus; set-up: key to rotenone sensitive OCR after 40 mins of biguanide exposure / rotenone sensitive OCR after 40 mins of biguanide exposure, average: % of OCR recorded immediately before biguanide addition; details: for rotenone sensitive OCR after 6 hours of biguanide exposure, % control, average / rotenone sensitive OCR after 6 hours of biguanide exposure, average / rotenone sensitive OCR after 40 mins of biguanide exposure, % control, average / rotenone sensitive OCR after 40 mins of biguanide exposure, average / rotenone sensitive OCR after 40 mins of biguanide exposure / rotenone sensitive OCR after 40 mins of biguanide exposure, % control: biguanide at IC50/10; for rotenone sensitive OCR after 6 hours of biguanide exposure, average: OCR normalized to OCR immediately prior to biguanide addition; for rotenone sensitive OCR after 40 mins of biguanide exposure, % control, average / rotenone sensitive OCR after 40 mins of biguanide exposure, average / rotenone sensitive OCR after 40 mins of biguanide exposure / rotenone sensitive OCR after 40 mins of biguanide exposure, % control: MDBK intact cells; for rotenone sensitive OCR after 40 mins of biguanide exposure, % control, average / rotenone sensitive OCR after 40 mins of biguanide exposure, average: average of replicates; for rotenone sensitive OCR after 40 mins of biguanide exposure / rotenone sensitive OCR after 40 mins of biguanide exposure, % control: individual replicates
Experimental: as §4, §5, §1

rat liver mitochondria = assay: ADP-stimulated rotenone-sensitive OCR in isolated rat liver mitochondria; assay type: biochemical; set-up: rotenone sensitive OCR after ADP stimulation, individual replicates / rotenone sensitive OCR after ADP stimulation, average: unit not given here; details: for rotenone sensitive OCR after ADP stimulation, % of control, average / rotenone sensitive OCR after ADP stimulation, average: average of replicates; for rotenone sensitive OCR after ADP stimulation, % of control, individual replicates / rotenone sensitive OCR after ADP stimulation, individual replicates: replicate 1-5
Experimental: as §2, §3

Row | SMILES | rotenone sensitive OCR after ADP stimulation, % of control, average (permeabilized MDBK cells) | rotenone sensitive OCR after ADP stimulation, average (permeabilized MDBK cells) | rotenone sensitive OCR after ADP stimulation, % of control, average (permeabilized MDBK cells; biguanide at IC50/5) | rotenone sensitive OCR after ADP stimulation, average (permeabilized MDBK cells; biguanide at IC50/5) | rotenone sensitive OCR after ADP stimulation (permeabilized MDBK cells; biguanide at IC50/5) | rotenone sensitive OCR after ADP stimulation, % of control (permeabilized MDBK cells; biguanide at IC50/5) | rotenone sensitive OCR after ADP stimulation, % of control, average (mouse liver mitochondria) | rotenone sensitive OCR after ADP stimulation, average (mouse liver mitochondria) | rotenone sensitive OCR after ADP stimulation, % of control, individual replicates (mouse liver mitochondria) | rotenone sensitive OCR after ADP stimulation, individual replicates (mouse liver mitochondria) | rotenone sensitive OCR after 6 hours of biguanide exposure, % control, average (HepG2 cells) | rotenone sensitive OCR after 6 hours of biguanide exposure, average (HepG2 cells) | inhibition of rotenone-sensitive respiration (in words) (HepG2 cells) | rotenone sensitive OCR after 6 hours of biguanide exposure, % control, average (MDBK cells; MDBK cells) | rotenone sensitive OCR after 6 hours of biguanide exposure, average (MDBK cells; MDBK cells) | rotenone sensitive OCR after 40 mins of biguanide exposure, % control, average (MDBK cells) | rotenone sensitive OCR after 40 mins of biguanide exposure, average (MDBK cells) | rotenone sensitive OCR after 40 mins of biguanide exposure (MDBK cells) | rotenone sensitive OCR after 40 mins of biguanide exposure, % control (MDBK cells) | rotenone sensitive OCR after ADP stimulation, % of control, average (rat liver mitochondria) | also measured
1 | NC(N)=NC(N)=NCCc1ccc(Cl)cc1 [compound 1, 2-[2-(4-chlorophenyl)ethyl]-1-(diaminomethylidene)guanidine] | 20.60 % of control | 58.06 | 20.60 % of control | 58.06 | 88.38 and 76.77 and 21.79 and 44.14 and 38.29 and 53.63 and 83.42 | 31.36 % of control and 27.24 % of control and 7.73 % of control and 15.66 % of control and 13.59 % of control and 19.03 % of control and 29.60 % of control | 43.22 % of control | 14.99 | 45.82 % of control and 40.66 % of control and 43.16 % of control | 15.90 and 14.11 and 14.98 | 4.45 % control | 4.59 | inhibit respiration | 64.04 % control | 64.24 | 96.88 % control | 98.58 | 98.09 and 97.70 and 99.35 (3×) and 96.88 and 99.34 | 96.40 % control and 96.02 % control and 97.64 % control (3×) and 95.21 % control and 97.63 % control | 55.19 % of control | maximal rate of accumulation (estimated matrix concentration) (MDBK cells; MDBK cells, biguanide at IC50/10 in the extracellular medium (phenformin 34 μM; compound 1 37 μM), estimated from OCR inhibition): 1 µM/min; rotenone sensitive OCR after ADP stimulation, average (rat liver mitochondria): 15.13; rotenone sensitive OCR after ADP stimulation, % of control, individual replicates (rat liver mitochondria): 67.97 % of control and 49.70 % of control and 53.49 % of control and 49.59 % of control; rotenone sensitive OCR after ADP stimulation, individual replicates (rat liver mitochondria): 18.64 and 13.63 and 14.67 and 13.60
2 | N=C(N)NC(N)=Nc1ccccc1 [compound 2, phenyl biguanide] | 101.81 % of control | 286.92 | 101.81 % of control | 286.92 | 411.58 and 226.55 and 268.24 and 253.43 and 274.79 | 146.05 % of control and 80.39 % of control and 95.18 % of control and 89.93 % of control and 97.51 % of control | 78.67 % of control | 27.30 | 80.64 % of control and 78.05 % of control and 77.34 % of control | 27.98 and 27.08 and 26.83 | 91.28 % control | 94.14 | do not | 99.86 % control | 100.16 | 98.99 % control | 100.73 | 97.96 and 102.05 and 98.68 and 102.17 and 103.50 and 100.00 | 96.27 % control and 100.30 % control and 96.98 % control and 100.41 % control and 101.71 % control and 98.28 % control | 93.19 % of control | rotenone sensitive OCR after ADP stimulation, average (rat liver mitochondria): 25.55; rotenone sensitive OCR after ADP stimulation, % of control, individual replicates (rat liver mitochondria): 95.39 % of control and 93.60 % of control and 90.74 % of control and 93.05 % of control; rotenone sensitive OCR after ADP stimulation, individual replicates (rat liver mitochondria): 26.15 and 25.66 and 24.88 and 25.51
